Legend:
human Nav1.7 channels = target: T1, human Nav1.7 channels (Homo sapiens, UniProt Q15858); test: FRET assay, human Nav1.7 (EFS on FDSS); type: cell-based; details: CHO cells expressing human Nav1.7, read-out: IC50 against Nav1.7
T1 construct: expressed in transfected cells; host or cells: CHO
Procedure, shortened: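 CHO cells stably expressing the channel, loaded with CC2-DMPE (10 µM) then DiSBAC2(3) (15 µM) plus VABSC-1, in HEPES-buffered saline pH 7.4 at room temperature. Electrical field stimulation on FDSS; FRET ratio at 440 nm fitted for IC50.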

human Nav1.3 channels = target: T2, human Nav1.3 channels (Homo sapiens, UniProt Q9NY46); test: FRET assay, human Nav1.3 (EFS on FDSS); type: cell-based; details: HEK293 cells expressing human Nav1.3, read-out: IC50 against Nav1.3
T2 construct: expressed in transfected cells; host or cells: HEK293
Procedure, shortened: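 HEK293 cells expressing the channel, loaded with 10 microM CC2-DMPE then 15 microM DiSBAC2(3) plus 0.555 mM VABSC-1 in pH 7.4 HEPES buffer at room temperature. Membrane potential changes evoked by electrical field stimulation after compound addition; IC50 from 440 nm-normalized FRET ratios.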

T2 sequence (Q9NY46 whole entry): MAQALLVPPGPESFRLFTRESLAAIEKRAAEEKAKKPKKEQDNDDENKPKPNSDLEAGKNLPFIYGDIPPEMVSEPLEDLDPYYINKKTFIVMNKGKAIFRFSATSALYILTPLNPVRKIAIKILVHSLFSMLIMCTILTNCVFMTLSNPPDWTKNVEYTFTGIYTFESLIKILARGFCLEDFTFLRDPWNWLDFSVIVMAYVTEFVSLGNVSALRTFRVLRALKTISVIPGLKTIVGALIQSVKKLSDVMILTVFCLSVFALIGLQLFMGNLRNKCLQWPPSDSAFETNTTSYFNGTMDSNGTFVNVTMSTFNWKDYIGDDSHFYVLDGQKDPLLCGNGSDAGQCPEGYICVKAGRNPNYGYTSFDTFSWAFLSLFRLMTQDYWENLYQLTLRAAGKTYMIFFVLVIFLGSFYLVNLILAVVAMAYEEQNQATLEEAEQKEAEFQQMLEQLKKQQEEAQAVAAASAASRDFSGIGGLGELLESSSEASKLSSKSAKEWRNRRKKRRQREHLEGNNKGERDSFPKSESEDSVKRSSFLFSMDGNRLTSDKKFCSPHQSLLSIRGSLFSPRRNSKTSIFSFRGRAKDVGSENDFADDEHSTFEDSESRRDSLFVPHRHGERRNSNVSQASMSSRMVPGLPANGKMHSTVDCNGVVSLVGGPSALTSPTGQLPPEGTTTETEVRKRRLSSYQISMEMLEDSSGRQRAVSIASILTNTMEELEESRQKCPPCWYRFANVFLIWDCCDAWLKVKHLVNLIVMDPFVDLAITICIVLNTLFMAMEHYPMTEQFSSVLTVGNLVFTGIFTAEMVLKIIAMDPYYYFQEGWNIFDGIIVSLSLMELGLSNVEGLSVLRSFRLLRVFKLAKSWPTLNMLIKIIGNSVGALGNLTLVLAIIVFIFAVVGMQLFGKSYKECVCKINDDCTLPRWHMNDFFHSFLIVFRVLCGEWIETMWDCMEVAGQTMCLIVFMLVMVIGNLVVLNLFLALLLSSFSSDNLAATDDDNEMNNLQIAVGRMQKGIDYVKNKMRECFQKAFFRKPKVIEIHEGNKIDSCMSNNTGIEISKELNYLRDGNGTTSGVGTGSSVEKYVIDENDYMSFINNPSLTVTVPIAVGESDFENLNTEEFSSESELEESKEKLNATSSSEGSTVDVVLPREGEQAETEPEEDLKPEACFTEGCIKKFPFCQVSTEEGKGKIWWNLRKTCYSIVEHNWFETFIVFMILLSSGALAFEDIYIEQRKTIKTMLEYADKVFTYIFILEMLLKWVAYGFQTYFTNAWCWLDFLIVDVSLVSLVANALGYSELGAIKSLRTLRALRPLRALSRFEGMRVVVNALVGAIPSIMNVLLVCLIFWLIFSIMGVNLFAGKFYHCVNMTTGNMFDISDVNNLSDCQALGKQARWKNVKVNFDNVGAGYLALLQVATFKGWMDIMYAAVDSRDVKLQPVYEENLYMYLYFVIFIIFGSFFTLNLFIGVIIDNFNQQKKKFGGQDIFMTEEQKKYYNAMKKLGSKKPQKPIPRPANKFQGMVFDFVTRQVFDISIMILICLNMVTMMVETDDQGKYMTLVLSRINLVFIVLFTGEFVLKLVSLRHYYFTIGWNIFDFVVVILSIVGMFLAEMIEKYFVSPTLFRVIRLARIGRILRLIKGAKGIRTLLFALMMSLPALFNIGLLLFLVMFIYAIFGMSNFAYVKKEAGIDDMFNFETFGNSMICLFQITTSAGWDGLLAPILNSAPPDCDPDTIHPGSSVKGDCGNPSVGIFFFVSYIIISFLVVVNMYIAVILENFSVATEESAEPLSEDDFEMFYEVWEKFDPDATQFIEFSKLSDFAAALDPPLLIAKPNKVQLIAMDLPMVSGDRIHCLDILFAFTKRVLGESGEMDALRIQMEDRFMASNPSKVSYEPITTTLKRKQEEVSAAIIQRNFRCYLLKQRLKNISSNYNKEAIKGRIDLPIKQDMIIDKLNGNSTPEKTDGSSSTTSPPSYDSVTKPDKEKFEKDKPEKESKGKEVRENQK
T1 sequence (Q15858 whole entry): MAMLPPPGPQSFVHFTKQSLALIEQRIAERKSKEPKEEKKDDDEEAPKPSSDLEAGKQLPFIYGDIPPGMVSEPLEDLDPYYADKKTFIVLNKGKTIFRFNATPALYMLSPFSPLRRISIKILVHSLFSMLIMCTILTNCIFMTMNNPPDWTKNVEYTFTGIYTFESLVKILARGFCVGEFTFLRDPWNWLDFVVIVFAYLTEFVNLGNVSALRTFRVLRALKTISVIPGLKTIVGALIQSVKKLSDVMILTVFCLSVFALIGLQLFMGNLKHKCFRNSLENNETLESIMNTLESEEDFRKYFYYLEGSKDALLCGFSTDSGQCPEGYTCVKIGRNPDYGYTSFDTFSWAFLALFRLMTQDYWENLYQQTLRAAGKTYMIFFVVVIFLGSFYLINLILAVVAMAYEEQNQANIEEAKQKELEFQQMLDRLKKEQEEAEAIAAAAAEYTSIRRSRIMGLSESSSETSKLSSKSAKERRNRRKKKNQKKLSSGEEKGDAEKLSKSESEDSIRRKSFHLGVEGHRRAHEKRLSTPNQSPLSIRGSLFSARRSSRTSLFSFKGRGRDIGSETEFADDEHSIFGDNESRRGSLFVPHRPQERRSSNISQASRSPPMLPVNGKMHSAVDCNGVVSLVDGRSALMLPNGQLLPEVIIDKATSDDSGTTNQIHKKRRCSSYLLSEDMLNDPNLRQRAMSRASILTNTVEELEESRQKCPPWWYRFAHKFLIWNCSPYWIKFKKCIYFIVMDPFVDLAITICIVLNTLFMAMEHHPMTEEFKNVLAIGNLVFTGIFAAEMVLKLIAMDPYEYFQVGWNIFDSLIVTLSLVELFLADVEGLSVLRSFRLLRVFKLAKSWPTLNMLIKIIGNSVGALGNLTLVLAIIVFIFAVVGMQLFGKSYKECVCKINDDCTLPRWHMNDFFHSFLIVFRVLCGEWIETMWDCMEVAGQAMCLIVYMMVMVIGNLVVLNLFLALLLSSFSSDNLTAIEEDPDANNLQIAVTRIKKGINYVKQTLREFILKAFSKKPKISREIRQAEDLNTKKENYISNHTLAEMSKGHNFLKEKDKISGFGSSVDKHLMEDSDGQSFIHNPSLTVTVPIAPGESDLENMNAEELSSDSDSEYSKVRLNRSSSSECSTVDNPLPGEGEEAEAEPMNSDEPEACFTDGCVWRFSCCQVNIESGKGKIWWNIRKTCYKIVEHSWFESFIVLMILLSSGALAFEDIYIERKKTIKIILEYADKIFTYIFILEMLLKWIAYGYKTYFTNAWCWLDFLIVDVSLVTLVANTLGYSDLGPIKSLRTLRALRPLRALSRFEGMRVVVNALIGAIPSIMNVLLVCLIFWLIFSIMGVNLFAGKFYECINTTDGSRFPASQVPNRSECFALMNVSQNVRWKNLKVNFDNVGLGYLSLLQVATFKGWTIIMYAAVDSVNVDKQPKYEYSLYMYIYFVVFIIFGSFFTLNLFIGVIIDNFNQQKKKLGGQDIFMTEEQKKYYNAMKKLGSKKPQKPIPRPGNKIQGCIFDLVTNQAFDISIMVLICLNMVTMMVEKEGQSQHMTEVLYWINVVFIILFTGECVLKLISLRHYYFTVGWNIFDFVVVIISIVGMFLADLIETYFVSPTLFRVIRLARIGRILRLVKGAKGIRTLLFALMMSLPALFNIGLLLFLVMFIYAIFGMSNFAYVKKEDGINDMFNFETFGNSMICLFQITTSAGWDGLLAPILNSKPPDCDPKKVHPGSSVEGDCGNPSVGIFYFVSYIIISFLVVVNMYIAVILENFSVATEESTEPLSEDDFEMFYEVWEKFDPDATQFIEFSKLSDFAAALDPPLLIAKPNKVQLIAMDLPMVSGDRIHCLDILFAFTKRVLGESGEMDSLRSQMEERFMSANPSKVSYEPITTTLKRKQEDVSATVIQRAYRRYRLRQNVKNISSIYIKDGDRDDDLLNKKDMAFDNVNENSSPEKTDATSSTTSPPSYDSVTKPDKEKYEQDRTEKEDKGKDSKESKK

| Compound | IC50 (human Nav1.7 channels) | IC50 (human Nav1.3 channels) |
| --- | --- | --- |
| Cc1cc(C(C)NC(=O)c2ccnc(NC(=O)C3CCC3)n2)cnc1OCC(F)(F)F (single isomer, unassigned) [Example 226, 2-(cyclobutanecarboxamido)-N-(1-(5-methyl-6-(2,2,2-trifluoroethoxy)pyridin-3-yl)ethyl)pyrimidine-4-carboxamide] | < 1000 nM | < 1000 nM |
| CCC(=O)Nc1nc(C)cc(C(=O)NC(C)c2cnc(OCC(F)(F)F)c(C)c2)n1 (single isomer, unassigned) [Example 227, 6-methyl-N-(1-(5-methyl-6-(2,2,2-trifluoroethoxy)pyridin-3-yl)ethyl)-2-propionamidopyrimidine-4-carboxamide] | < 1000 nM | < 1000 nM |
| Cc1cc(C(=O)NC(C)c2cnc(OCC(F)(F)F)c(C)c2)nc(NC(=O)C2CC2)n1 (single isomer, unassigned) [Example 228, 2-(cyclopropanecarboxamido)-6-methyl-N-(1-(5-methyl-6-(2,2,2-trifluoroethoxy)pyridin-3-yl)ethyl)pyrimidine-4-carboxamide] | < 1000 nM | < 1000 nM |
| Cc1cc(C(=O)NC(C)c2cnc(OCC(F)(F)F)c(C)c2)nc(NC(=O)C(C)C)n1 (single isomer, unassigned) [Example 229, 2-isobutyramido-6-methyl-N-(1-(5-methyl-6-(2,2,2-trifluoroethoxy)pyridin-3-yl)ethyl)pyrimidine-4-carboxamide] | < 1000 nM | < 1000 nM |
| CC(=O)Nc1nc(C)cc(C(=O)NC(C)c2cnc(OCC(F)(F)F)c(C)c2)n1 (single isomer, unassigned) [Example 235, 2-acetamido-6-methyl-N-(1-(5-methyl-6-(2,2,2-trifluoroethoxy)pyridin-3-yl)ethyl)pyrimidine-4-carboxamide] | < 1000 nM | < 1000 nM |
| Cc1cc(C(=O)NC(C)c2cnc(OCC(F)(F)F)c(C)c2)nc(Nc2ncco2)n1 (single isomer, unassigned) [Example 456, 6-methyl-N-(1-(5-methyl-6-(2,2,2-trifluoroethoxy)pyridin-3-yl)ethyl)-2-(oxazol-2-ylamino)pyrimidine-4-carboxamide] | < 1000 nM | < 1000 nM |
| Cc1cc(C(=O)NC(C)c2cccc(OC(F)(F)F)c2)cc(NC(=O)C(C)C)n1 (single isomer, unassigned) [Example 499, 2-isobutyramido-6-methyl-N-(1-(3-(trifluoromethoxy)phenyl)ethyl)isonicotinamide] | < 1000 nM | < 1000 nM |
| Cc1cc(C(=O)NC(C)c2cnc(OCC(F)(F)F)c(C)c2)cc(NC(=O)C(C)C)n1 (single isomer, unassigned) [Example 520, 2-isobutyramido-6-methyl-N-(1-(5-methyl-6-(2,2,2-trifluoroethoxy)pyridin-3-yl)ethyl)isonicotinamide] | < 1000 nM | < 1000 nM |
| CCC(=O)Nc1cc(C(=O)NC(C)c2cnc(OCC(F)F)c(C)c2)cc(C)n1 (single isomer, unassigned) [Example 554, N-(1-(6-(2,2-difluoroethoxy)-5-methylpyridin-3-yl)ethyl)-2-methyl-6-propionamidoisonicotinamide] | < 1000 nM | < 1000 nM |
| Cc1cc(C(C)NC(=O)c2ccnc(NC(=O)C(C)C)c2)cnc1OCC(F)F (single isomer, unassigned) [Example 555, N-(1-(6-(2,2-difluoroethoxy)-5-methylpyridin-3-yl)ethyl)-2-isobutyramidoisonicotinamide] | < 1000 nM | < 1000 nM |
| Cc1cc(C(=O)NC(C)c2cnc(OCC(F)F)c(C)c2)cc(NC(=O)C(C)C)n1 (single isomer, unassigned) [Example 557, N-(1-(6-(2,2-difluoroethoxy)-5-methylpyridin-3-yl)ethyl)-2-isobutyramido-6-methylisonicotinamide] | < 1000 nM | < 1000 nM |
| Cc1cc(C(C)NC(=O)c2ccnc(NC(=O)C3CC3)n2)cnc1OCC(F)F (single isomer, unassigned) [Example 558, 2-(cyclopropanecarboxamido)-N-(1-(6-(2,2-difluoroethoxy)-5-methylpyridin-3-yl)ethyl)pyrimidine-4-carboxamide] | < 1000 nM | < 1000 nM |
| CCC(=O)Nc1cc(C(=O)NC(C)c2ccc(OCC(F)(F)F)c(Cl)c2)cc(C)n1 (single isomer, unassigned) [Example 677, N-(1-(3-chloro-4-(2,2,2-trifluoroethoxy)phenyl)ethyl)-2-methyl-6-propionamidoisonicotinamide] | < 1000 nM | < 1000 nM |
| CC(NC(=O)c1ccnc(NC(=O)C2CC2)n1)c1ccc(OCC(F)(F)F)c(Cl)c1 (single isomer, unassigned) [Example 680, N-(1-(3-chloro-4-(2,2,2-trifluoroethoxy)phenyl)ethyl)-2-(cyclopropanecarboxamido)pyrimidine-4-carboxamide] | < 1000 nM | < 1000 nM |
| Cc1cc(C(=O)NC(C)c2cnc(OCC(F)(F)F)c(C)c2)cc(NC(=O)C2CC2)n1 (single isomer, unassigned) [Example 823, 2-(cyclopropanecarboxamido)-6-methyl-N-(1-(5-methyl-6-(2,2,2-trifluoroethoxy)pyridin-3-yl)ethyl)isonicotinamide] | < 1000 nM | < 1000 nM |
| Cc1cc(C(=O)NC(C)c2cnc(OCC(F)(F)F)c(Cl)c2)cc(NC(=O)C2CC2)n1 (single isomer, unassigned) [Example 832, N-(1-(5-chloro-6-(2,2,2-trifluoroethoxy)pyridin-3-yl)ethyl)-2-(cyclopropanecarboxamido)-6-methylisonicotinamide] | < 1000 nM | < 1000 nM |
| Cc1cc(C(C)NC(=O)c2ccnc(NC(=O)C(C)C)c2)cnc1OCC(F)(F)C(F)F (single isomer, unassigned) [Example 904, 2-isobutyramido-N-(1-(5-methyl-6-(2,2,3,3-tetrafluoropropoxy)pyridin-3-yl)ethyl)isonicotinamide] | < 1000 nM | < 1000 nM |
| Cc1cc(C(=O)NC(C)c2cnc(OCC(F)(F)C(F)F)c(C)c2)cc(NC(=O)C(C)C)n1 (single isomer, unassigned) [Example 905, 2-isobutyramido-6-methyl-N-(1-(5-methyl-6-(2,2,3,3-tetrafluoropropoxy)pyridin-3-yl)ethyl)isonicotinamide] | < 1000 nM | < 1000 nM |
| Cc1cc(C(C)NC(=O)c2ccnc(NC(=O)C3CC3)n2)cnc1OCC(F)(F)C(F)F (single isomer, unassigned) [Example 906, 2-(cyclopropanecarboxamido)-N-(1-(5-methyl-6-(2,2,3,3-tetrafluoropropoxy)pyridin-3-yl)ethyl)pyrimidine-4-carboxamide] | < 1000 nM | < 1000 nM |
| CCC(=O)Nc1cc(C(=O)NC(C)c2cnc(OCC(F)(F)C(F)F)c(C)c2)ccn1 (single isomer, unassigned) [Example 925, N-(1-(5-methyl-6-(2,2,3,3-tetrafluoropropoxy)pyridin-3-yl)ethyl)-2-propionamidoisonicotinamide] | < 1000 nM | < 1000 nM |
| Cc1cc(C(C)NC(=O)c2ccnc(NC(=O)C3CC3)c2)cnc1OCC(F)(F)C(F)F (single isomer, unassigned) [Example 926, 2-(cyclopropanecarboxamido)-N-(1-(5-methyl-6-(2,2,3,3-tetrafluoropropoxy)pyridin-3-yl)ethyl)isonicotinamide] | < 1000 nM | < 1000 nM |
| CC(=O)Nc1cc(C(=O)NC(C)c2cnc(OCC(F)(F)C(F)F)c(C)c2)cc(C)n1 (single isomer, unassigned) [Example 927, 2-acetamido-6-methyl-N-(1-(5-methyl-6-(2,2,3,3-tetrafluoropropoxy)pyridin-3-yl)ethyl)isonicotinamide] | < 1000 nM | < 1000 nM |
| Cc1cc(C(=O)NC(C)c2cnc(OCC(F)(F)F)c(C)c2)cc(NC(=O)CC2CC2)n1 (single isomer, unassigned) [Example 953, 2-(2-cyclopropylacetamido)-6-methyl-N-(1-(5-methyl-6-(2,2,2-trifluoroethoxy)pyridin-3-yl)ethyl)isonicotinamide] | < 1000 nM | < 1000 nM |
| CCC(=O)Nc1cc(C(=O)NCc2cnc(OCC(F)(F)F)c(Cl)c2)ccn1 [Example 94, N-((5-chloro-6-(2,2,2-trifluoroethoxy)pyridin-3-yl)methyl)-2-propionamidoisonicotinamide] | < 1000 nM | < 1000 nM |
| CCC(=O)Nc1cc(C(=O)NCc2cccc(C(F)(F)F)c2)cc(C)n1 [Example 127, 2-methyl-6-propionamido-N-(3-(trifluoromethyl)benzyl)isonicotinamide] | < 1000 nM | < 1000 nM |
| CCC(=O)Nc1cc(C(=O)NCc2cc(C(F)(F)F)ccc2F)cc(C)n1 [Example 128, N-(2-fluoro-5-(trifluoromethyl)benzyl)-2-methyl-6-propionamidoisonicotinamide] | < 1000 nM | < 1000 nM |
| CCC(=O)Nc1cc(C(=O)NCc2cccc(OC(F)F)c2)cc(C)n1 [Example 129, N-(3-(difluoromethoxy)benzyl)-2-methyl-6-propionamidoisonicotinamide] | < 1000 nM | < 1000 nM |
| COc1nc(OCC(F)(F)F)ccc1CNC(=O)c1ccnc(NC(=O)C2CC2)c1 [Example 147, 2-(cyclopropanecarboxamido)-N-((2-methoxy-6-(2,2,2-trifluoroethoxy)pyridin-3-yl)methyl)isonicotinamide] | < 1000 nM | < 1000 nM |

From US9302991B2, “Arylamide derivatives as TTX-S blockers” (RaQualia Pharma Inc., priority 2010, dated 2016)
